From PMC9996372, “Aim18p and Aim46p are chalcone isomerase domain–containing mitochondrial hemoproteins in Saccharomyces cerevisiae” (The Journal of Biological Chemistry, 2023)

Experiments:
AtFAP1-Nd45-WT = molecular target: T1, AtFAP1-Nd45-WT (Arabidopsis thaliana, UniProt Q9M1X2); conditions: 5 μM protein, 50 μM fatty acid, 100 mM Hepes pH 7.5, 150 mM NaCl, 1 h at RT; versus DMSO
T1 construct: gene FAP1

AtCHI1-FL-WT = molecular target: T2, AtCHI1-FL-WT (Arabidopsis thaliana, UniProt P41088); assay: chalcone isomerase assay, depletion of A381; type: biochemical; conditions: 10 nM protein, 200 μM naringenin chalcone, 50 mM Hepes pH 7.5, 150 mM NaCl, 5% EtOH; product naringenin
T2 construct: gene CHI1; full-length; N-terminal 8X-His tag
T2 sequence (P41088 1-246): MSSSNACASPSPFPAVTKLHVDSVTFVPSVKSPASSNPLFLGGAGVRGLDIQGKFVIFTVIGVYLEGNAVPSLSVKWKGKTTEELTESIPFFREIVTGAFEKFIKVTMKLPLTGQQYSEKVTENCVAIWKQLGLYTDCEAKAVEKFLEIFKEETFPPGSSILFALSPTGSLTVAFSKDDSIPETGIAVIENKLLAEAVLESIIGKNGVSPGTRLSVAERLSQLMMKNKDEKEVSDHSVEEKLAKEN

T1 sequence (Q9M1X2 46-279): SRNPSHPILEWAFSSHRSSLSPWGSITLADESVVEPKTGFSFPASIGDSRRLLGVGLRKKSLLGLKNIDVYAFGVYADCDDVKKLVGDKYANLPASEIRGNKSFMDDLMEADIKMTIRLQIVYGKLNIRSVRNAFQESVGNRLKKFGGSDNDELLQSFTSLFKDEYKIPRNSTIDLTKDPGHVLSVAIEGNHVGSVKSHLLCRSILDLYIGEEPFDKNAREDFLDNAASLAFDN

Structure (SMILES)	ΔTm (AtFAP1-Nd45-WT)	chalcone isomerase assay, depletion of A381 (AtCHI1-FL-WT)
CC/C=C\C/C=C\C/C=C\CCCCCCCC(=O)O [Linolenic acid]	AtFAP1-Nd45-WT was the only protein stabilized by the addition of linolenic acid	–
O=C(/C=C/c1ccc(O)cc1)c1c(O)cc(O)cc1O [naringenin chalcone]	–	Only AtCHI-WT rapidly converted naringenin chalcone to naringenin
